The target of one test is T1, Aβ40 (Homo sapiens, UniProt P05067).
T1 construct: 15N labeled (a) Aβ40 (80 μM)
Nature of the test: Thioflavin T assay, inhibition of Aβ40 amyloid formation. The class given is biochemical. The conditions noted are these: ThT assay; Aβ40 50 μM; 5-fold molar excess; PBS 50 mM pH 7.4, 3% DMSO, 37 °C. As for the experimental part: First, we monitored the kinetics of the amyloid formation of Aβ40 (50 μM) by thioflavin T (ThT) assay (Fig. 2a and b). The Aβ40 peptide alone aggregated with time, with a growth saturation point around 72 h, as evident from the surge in ThT fluorescence intensity. […] Green-gold birefringence appears to be a standard result of Aβ40 aggregation under cross-polarized light post-staining with Congo red dye. Owing to amyloid formation, Aβ40 appears as green-gold birefringence (Fig. 2d) under cross-polarized light when stained with Congo red.
400μL of the sample was taken in a cuvette of 1mm path length. Three measurements were accumulated.
Spectra were recorded from 190nm to 260nm on a JASCO J-1500 instrument. […]
1.5 mg of commercially available Aβ40 peptide was taken and disaggregated by TFA (50μ L) and evaporated under nitrogen gas. […] To obtain precise results, two more replicate solutions of each portion were prepared (total number of samples for this experiment was 27), and fibrillization was monitored by various biophysical tools. […]
b. Thioflavin T Fluorescence Assay
A stock solution of Thioflavin T (ThT) of concentration 50μM in PBS (50mM, pH 7.4) was prepared and stored at 4 °C with the proper protection to prevent degradation from light. […] For fluorescence studies, 40μLof peptide sample was mixed with 200μL of ThT solution (50μM), and the total volume was made up to 400μL using PBS. […]

The test system of test [1] is SH-SY5Y cells. Briefly: Intracellular Ca2+ (Fura-2AM). The class given is cell-based, human. The conditions noted are these: Aβ40 10 μM, compared to untreated cells. The text has this: Condensed or fragmented nuclear bodies characterize the distinctive nature of apoptotic cells. […] Dyshomeostasis of Ca^2+ is also responsible for the increased production of Aβ peptides, by which a degenerative feed-forward cycle is activated, resulting in accelerated apoptosis, synaptic dysfunction, and memory impairment.[49] […]
e. Measurement of intracellular calcium (Ca 2+)
Ca2+sensitive dye Fura-2AM was used to measure free intracellular Ca2+level in SH-SY5Y cell suspension by the previously described method.12 Following treatment with the respective drug, Fura-2 AM (Cayman, USA) at a concentration of 5 µM was added to the culture medium and incubated at 37°C for 45 min. Next, Krebs-Ringer-HEPES (KRH) buffer (135mM NaCl, 5mM KCl, 1mM MgSO4, 0.4mM KH2PO4, 1mM CaCl2, 5.5mM glucose, 20mM HEPES, pH 7.4) was used to wash each plate twice containing (1×10^6cells). Fluorescent microplate reader (FLX 800, Biotek, USA) was used to measure the fluorescence intensity with an excitation and emission spectra of […], respectively. Results are Mean±SEM of quadruplicate measurements from three separate experiments and expressed in the increase in percent relative fluorescent unit (RFU) relative to the baseline reading.
Western blot analysis was performed to measure Bax, Bcl-2, cleaved Caspase 9 and cleaved Caspase 3, pro and anti-apoptotic proteins expression. […]

In test [2] the test system is SH-SY5Y cells. Briefly: Hoechst 33258 staining of apoptotic cells. The conditions noted are these: Aβ40 10 μM, 24 h. The class given is cell-based, human. The source says: Condensed or fragmented nuclear bodies characterize the distinctive nature of apoptotic cells. […] Dyshomeostasis of Ca^2+ is also responsible for the increased production of Aβ peptides, by which a degenerative feed-forward cycle is activated, resulting in accelerated apoptosis, synaptic dysfunction, and memory impairment.[49]

*1 amine or outer side, *2 acyl side, *3 side chain or, on linkers, in order; H or OH if unused. Where a SMILES comes first, the peptide text is derived from it. Bridges are numbered along the chain shown (N, C = ends). Roman numbers before positions name the chains, in order. [ ]: non-standard residue; d: D form. X1 = O=C(CCCCC(=O)[*:2])NCCCOCCOCCOCCCNC(=O)CCC(=O)[*:1]; NMeF = CN[C@@H](Cc1ccccc1)C(=O)O; NMeL = CN[C@@H](CC(C)C)C(=O)O; NMeV = CN[C@H](C(=O)O)C(C)C

T1 sequence (P05067 672-711 limits assumed): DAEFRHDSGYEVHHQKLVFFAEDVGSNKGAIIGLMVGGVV

On to `CC(C)C[C@H](NC(=O)CNC(=O)CCC(=O)NCCCOCCOCCOCCCNC(=O)CCCCC(=O)NCC(=O)N(C)[C@@H](CC(C)C)C(=O)N[C@H](C(=O)N(C)[C@@H](Cc1ccccc1)C(=O)N[C@@H](Cc1ccccc1)C(=O)N[C@@H](C)C(N)=O)C(C)C)C(=O)N(C)[C@H](C(=O)N[C@@H](Cc1ccccc1)C(=O)N(C)[C@@H](Cc1ccccc1)C(=O)N[C@@H](C)C(N)=O)C(C)C` [SP1] (I: GL[NMeV]F[NMeF]A-NH2 / II: G[NMeL]V[NMeF]FA-NH2; linker I:N-II:N via X1), for which the “inhibition of Aβ40 amyloid formation” value on Aβ40 was approximately 66%.
Turning to “Aβ40: commercially available Aβ40 peptide”, the “intracellular Ca2+ level, Aβ40 alone” value in the test with SH-SY5Y cells [1] was “significantly elevated intracellular Ca^2+ levels”. For the same molecule, the “apoptotic cells, Aβ40 alone” value in the test with SH-SY5Y cells [2] was “A significant number of apoptotic cells were observed”.

For the origin of these results see PMC8179358, “An explicitly designed paratope of amyloid-β prevents neuronal apoptosis in vitro and hippocampal damage in rat brain” (Chemical Science, 2020).
